Assay results taken from ChEMBL document CHEMBL5512674, “Novel Acyl Thiourea-Based Hydrophobic Tagging Degraders Exert Potent Anti-Influenza Activity through Two Distinct Endonuclease Polymerase Acidic-Targeted Degradation Pathways” (J Med Chem, 2024).
Activity calls are given as the source filed them. No cut-off for these calls is given here.

Tests used:
[1] = Cytotoxicity against human HEK293T cells assessed as reduction in cell viability incubated for 48 hrs by CCK-8 assay; type: toxicity, cell-based, HEK-293T
Influenza A virus [2] = assay: Anti-influenza activity against Influenza A virus A/PR/8/34 (H1N1) infected in MDCK cells assessed as inhibition of viral growth at 100 uM incubated for 48 hrs by luciferase assay relative to control; type: functional
Influenza A virus [3] = assay: Anti-influenza activity against Influenza A virus A/WSN/33(H1N1) infected in HEK293T cells assessed as reduction in virus-induced cytopathic effect incubated for 48 hrs by CCK-8 assay; type: functional, organism-based; conditions: HEK-293T
[4] = Selectivity index, ratio of CC50 for cytotoxicity against human HEK293T cells to EC50 for anti-influenza activity against Influenza A virus A/WSN/33(H1N1) infected in HEK293T cells assessed as reduction in virus-induced cytopathic effect; type: toxicity, cell-based; conditions: read-out: Ratio CC50/EC50
[5] = molecular target: T1, von Hippel-Lindau disease tumor suppressor/Polymerase acidic protein (Influenza A virus (A/Puerto Rico/8/1934(H1N1))) (UniProt P03433+P40337); assay: PROTAC activity at Influenza A virus A/WSN/33(H1N1) flag tagged Polymerase acidic protein/VHL (unknown origin) expressed in HEK293T cells assessed as degradation of PA expression at 10 uM incubated for 16 hrs by Western blotting analysis; type: cell-based
[6] = molecular target: T1, von Hippel-Lindau disease tumor suppressor/Polymerase acidic protein (Influenza A virus (A/Puerto Rico/8/1934(H1N1))); assay: PROTAC activity at Influenza A virus A/WSN/33(H1N1) flag tagged Polymerase acidic protein/VHL (unknown origin) expressed in HEK293T cells assessed as degradation of PA expression at 5 uM incubated for 24 hrs by Western blotting analysis; type: cell-based
[7] = molecular target: T2, Protein cereblon/Androgen receptor (Homo sapiens) (UniProt P10275+Q96SW2); assay: PROTAC activity at Influenza A virus A/WSN/33(H1N1) flag tagged Polymerase acidic protein/CRBN (unknown origin) expressed in HEK293T cells assessed as degradation of PA expression at 10 uM incubated for 16 hrs by Western blotting analysis; type: cell-based
[8] = molecular target: T2, Protein cereblon/Androgen receptor (Homo sapiens); assay: PROTAC activity at Influenza A virus A/WSN/33(H1N1) flag tagged Polymerase acidic protein/CRBN (unknown origin) expressed in HEK293T cells assessed as degradation of PA expression at 5 uM incubated for 24 hrs by Western blotting analysis; type: cell-based

T2 sequence (P10275 whole entry, looked up): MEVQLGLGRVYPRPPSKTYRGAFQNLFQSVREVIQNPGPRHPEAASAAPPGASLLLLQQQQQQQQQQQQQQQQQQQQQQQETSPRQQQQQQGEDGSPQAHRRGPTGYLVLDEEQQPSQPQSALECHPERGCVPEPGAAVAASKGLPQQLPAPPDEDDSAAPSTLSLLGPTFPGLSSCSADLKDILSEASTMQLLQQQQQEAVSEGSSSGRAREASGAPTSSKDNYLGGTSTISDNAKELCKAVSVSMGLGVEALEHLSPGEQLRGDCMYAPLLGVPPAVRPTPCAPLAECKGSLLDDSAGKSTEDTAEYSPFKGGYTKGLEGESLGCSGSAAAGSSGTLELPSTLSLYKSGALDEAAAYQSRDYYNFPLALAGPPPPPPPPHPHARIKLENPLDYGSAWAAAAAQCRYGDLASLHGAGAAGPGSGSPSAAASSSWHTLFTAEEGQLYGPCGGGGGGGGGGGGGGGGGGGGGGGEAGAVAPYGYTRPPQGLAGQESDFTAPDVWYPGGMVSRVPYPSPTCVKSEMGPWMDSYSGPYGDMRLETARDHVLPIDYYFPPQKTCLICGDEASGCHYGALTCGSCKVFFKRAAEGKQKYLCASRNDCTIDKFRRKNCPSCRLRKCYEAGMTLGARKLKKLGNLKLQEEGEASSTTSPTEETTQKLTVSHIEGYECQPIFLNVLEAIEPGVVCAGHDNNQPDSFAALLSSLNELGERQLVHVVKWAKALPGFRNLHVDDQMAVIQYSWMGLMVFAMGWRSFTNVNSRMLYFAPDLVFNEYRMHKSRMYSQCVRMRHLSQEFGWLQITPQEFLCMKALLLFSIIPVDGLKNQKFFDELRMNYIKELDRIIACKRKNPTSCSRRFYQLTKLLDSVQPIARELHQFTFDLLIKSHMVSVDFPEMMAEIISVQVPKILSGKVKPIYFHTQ
T2 sequence (Q96SW2 whole entry, looked up): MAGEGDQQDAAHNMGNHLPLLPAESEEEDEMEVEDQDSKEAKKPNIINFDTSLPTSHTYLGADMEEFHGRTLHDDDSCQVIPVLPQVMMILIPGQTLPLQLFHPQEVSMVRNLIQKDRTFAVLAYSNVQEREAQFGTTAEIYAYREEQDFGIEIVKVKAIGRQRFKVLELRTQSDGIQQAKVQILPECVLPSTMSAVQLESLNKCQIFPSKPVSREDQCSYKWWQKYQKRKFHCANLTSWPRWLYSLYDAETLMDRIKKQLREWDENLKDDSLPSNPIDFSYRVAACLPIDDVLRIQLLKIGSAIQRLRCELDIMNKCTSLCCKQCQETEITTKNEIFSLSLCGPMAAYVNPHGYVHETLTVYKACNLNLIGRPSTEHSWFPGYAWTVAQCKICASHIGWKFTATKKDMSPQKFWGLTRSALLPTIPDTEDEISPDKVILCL

SMILES | CC50 at 48 h [1] [µM] | inhibition at 100 µM (Influenza A virus [2]) [%] | EC50 (Influenza A virus [3]) [µM] | selectivity ratio [4] | Activity [5] | Activity [6] | Activity [7] | Activity [8]
NC12CC3CC(CC(C3)C1)C2 [AMANTADINE] | > 100 | 62.3 | 1.79 | > 55.9 | – | – | – | –
Cc1ncsc1-c1ccc(CNC(=O)[C@@H]2C[C@@H](O)CN2C(=O)C(NCCCCCCCC(=O)Nc2ccc(NC(=S)NC(=O)c3ccc(C(C)(C)C)cc3)cc2)C(C)(C)C)cc1 (mixture of isomers) | – | – | > 10 | – | Active | Active | – | –
CC(C)(C)c1ccc(C(=O)NC(=S)Nc2ccc(NC(=O)CCCCCCCNc3cccc4c3CN(C3CCC(=O)NC3=O)C4=O)cc2)cc1 (stereo not given) | – | – | > 10 | – | – | – | Active | Active
